Each block holds one molecule with its values, some of them ahead of it.
Legend:
Weri-Rb1 cells [1] = assay: FACS analysis of 5-Aza-2-dc treated Weri-Rb1 cells; type: cell-based, human; details: 2.5 μM
Method: (§1) Weri-Rb1 cell line and 5-Aza-2-dc DNA methyltransferase inhibitor treatment—Human retinoblastoma cell line (Weri-Rb1 ) obtained from the American Type Culture Collection (ATCC, Manassas, Va., USA) was cultured in RPMI 1640 supplemented with 10% FCS at spin ratio of 1:2 once a week. A volume of […] of 5-Aza-2-dc, a DNA methyltransferase inhibitor (Sigma-Aldrich, St. Louis, Mo., USA) was added to medium culture of treated cells.
(§2) Cell viability (MTT) and FACS analysis—Quantitative cell viability was measured by colorimetric assay using a cell proliferation kit (MTT) (Roche Molecular Biochemicals, Mannheim, Germany). A total of 5000 cells/well Weri-Rb1 and 5-Aza-2-dc-treated Weri-Rb1 were grown in microtiter plates (96-well) in a final volume of 100 μl culture medium. The incubation period of cell culture was 24, 48 and 96 h in the presence or absence of the 2.5 μM DNA methyltransferase inhibitor. After incubation period, 10 μl MTT labeling reagent was added to each well to a final concentration […]. MTT is cleaved by growing cells to form formazan crystals which allows quantification of cell viability by spectrdphotometric analysis (ELISA) at 550 nm. Cell viability was expressed as the percentage of the absorbance of drug-treated and untreated cells relative to that of the untreated cells of 0 h. […]

[2] = tested on: RB2/p130 mRNA in H23 cells; assay: Multiplex RT-PCR of RB2/p130 mRNA in treated H23 cells; type: cell-based, human; details: 2.5 μM, beginning at 48 hours after treatment, vs basal level
Method: (§3) Cell cultures and treatment—Cell lines were purchased from the American Type Culture Collection (Rockville, Md.). The cells were cultured in DMEM or RPMI1640 medium supplemented with 10% fetal bovine serum and 2 mM L-glutamine. For treatment, cells were seeded at a density of 5×10^5 cells/100-mm tissue culture dish. 2.5 μM of DNA methyltransferase inhibitor (5-AZA-2-deoxicytidine) was added to the culture medium for up 96 hours.
Multiplex RT-PCR—Multiplex RT-PCR analysis was carried out with 0.2 μg of total RNA from treated and untreated H23 cells. PCR was performed using RB2/p130 primers and β-actin specific primers (SuperScript RT-PCR System, Invitrogen).

[3] = tested on: pRb2/p130 expression in Weri-Rb1 cells; assay: Western blot of pRb2/p130 in treated Weri-Rb1 cells; type: cell-based, human; details: Weri-Rb1 whole cell lysates, treated 24-96 h, vs untreated control after 96 h culture
Method: as §1
Western blotting—Western blot analysis of pRb/p105 and pRb2/p130 was performed on three fresh samples of primary tumors (samples 8-10). Weri-Rb1 cells and one normal retina sample, obtained from a patient who underwent enucleation for painful absolute glaucoma, served as an experimental control. Fresh tissues were immediately frozen in liquid nitrogen. Furthermore, Weri-Rb1 cells treated and untreated with 5-Aza-2-dc at various times were processed for Western blot analysis. Whole tissues lysates were prepared by resuspending homogenized tissues and pelleted cells in lysis buffer (50 mM Tris/HCl, 5 mM EDTA, 250 mM NaCl, 50 mM NaF, 0.1% Triton X-100, 0.1 mM Na3VO4 plus fresh inhibitors). Equal amounts of 100 μg of total extracts were loaded and resolved on a 7 or 10% SDS-PAGE. The gels were then transferred onto a nitrocellulose filter and checked by using 0.1% Ponceau red. […]

Weri-Rb1 cells [4] = assay: Cell viability (MTT) / proliferation of Weri-Rb1 cells; type: cell-based, human; details: 2.5 μM, after 96 h of treatment, vs untreated
Method: as §1, §2

[5] = tested on: pRb2/p130 protein in H23 cells; assay: Western blot of pRb2/p130 in treated H23 cells; type: cell-based, human; details: 2.5 μM, observed at 72 hours, maximum at 96 hours
Method: as §3
Western blot analysis of pRb2/p130 was performed using total protein lysates from untreated and 5-AZA-2-deoxicytidine treated H23 cells. Whole cell lysates were prepared in lysis buffer (50 mM Tris/HCl, 5 mM EDTA, 250 mM NaCl, 50 mM NaF, 0.1% Triton-X, 0.1 mM Na3VO4 plus fresh inhibitors). Equal amounts of 100 μg of total extracts were loaded and resolved on a 7% SDS-PAGE. The gels were then transferred onto a nitrocellulose filter and checked by using 0.1% Ponceau red. The monoclonal anti-pRb2/p130 (Transduction Laboratories, Ky., USA) was used at a dilution of 1:800.

p107 = biological target: T1, p107 (human, UniProt P28749 1-1068); assay: co-immunoprecipitation with anti-PAI-2 antibody from nuclear and cytoplasmic lysates of primary human corneal and conjunctival epithelial cells, Western blot with anti-p107
T1 sequence (looked up): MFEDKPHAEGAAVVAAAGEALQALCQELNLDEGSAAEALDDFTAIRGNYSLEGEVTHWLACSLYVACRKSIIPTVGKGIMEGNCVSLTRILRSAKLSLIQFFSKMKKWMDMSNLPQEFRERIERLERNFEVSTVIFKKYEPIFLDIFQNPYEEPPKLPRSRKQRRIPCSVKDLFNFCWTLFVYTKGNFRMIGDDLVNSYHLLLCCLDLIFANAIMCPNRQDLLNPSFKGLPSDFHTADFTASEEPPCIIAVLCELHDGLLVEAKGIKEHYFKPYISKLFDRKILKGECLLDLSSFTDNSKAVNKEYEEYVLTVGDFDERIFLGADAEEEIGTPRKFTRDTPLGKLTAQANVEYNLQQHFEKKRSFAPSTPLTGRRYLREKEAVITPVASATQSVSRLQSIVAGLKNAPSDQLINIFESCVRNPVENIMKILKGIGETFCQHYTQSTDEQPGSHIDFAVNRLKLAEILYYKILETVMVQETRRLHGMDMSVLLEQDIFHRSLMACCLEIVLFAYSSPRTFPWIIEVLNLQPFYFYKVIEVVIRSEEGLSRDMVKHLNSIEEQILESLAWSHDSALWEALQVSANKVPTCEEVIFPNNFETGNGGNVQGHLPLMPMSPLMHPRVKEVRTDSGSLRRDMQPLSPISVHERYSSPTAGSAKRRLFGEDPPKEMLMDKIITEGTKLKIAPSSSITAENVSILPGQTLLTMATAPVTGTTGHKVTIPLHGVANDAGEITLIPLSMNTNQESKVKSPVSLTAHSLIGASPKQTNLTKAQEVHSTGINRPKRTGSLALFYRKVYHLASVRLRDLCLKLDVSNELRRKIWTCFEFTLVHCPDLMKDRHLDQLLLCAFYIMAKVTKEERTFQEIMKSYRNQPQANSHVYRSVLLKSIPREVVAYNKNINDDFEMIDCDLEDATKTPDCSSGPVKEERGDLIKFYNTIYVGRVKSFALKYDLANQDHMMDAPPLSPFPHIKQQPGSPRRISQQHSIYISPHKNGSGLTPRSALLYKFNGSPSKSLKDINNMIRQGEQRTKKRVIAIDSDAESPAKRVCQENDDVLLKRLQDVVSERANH
Excerpt: Western blot and chromatin immuoprecipitation assay—Cytoplasmic and nuclear proteins were extracted from 12 couples of paired normal human corneal and conjunctival epithelial cells by using the PARIS kit (Ambion) according to the manufacturer's instructions. Efficient cytoplasmic and nuclear fractionation was confirmed by Western blotting analysis using anti-GAPDH antibody for the cytoplasmic fraction and anti Oct-1 antibody for the nuclear fraction. Immunoprecipitation experiments were performed using the cytoplasmic and nuclear fractions with PAI-2 as immunoprecipitating antibody (N-18, Santa Cruz Biotechnology, Calif.). The presence of pRb2/p130, Rb1/p105 and p107 in both PAI-2 nuclear and cytoplasmic precipitates was assessed with anti-pRb2/p130, anti-Rb1/p105 and p107 antibodies (211.6, C-15 and C-18, respectively; Santa Cruz Biotechnology, Calif.) by Western blotting.
In order to assess whether PAI-2 associated with the retinoblastoma family proteins, PAI-2 was immunoprecipitated from nuclear and cytoplasmic lysates of twelve paired couples of normal primary human corneal and conjunctival epithelial cells. The immunoprecipitates were then analyzed by Western blotting using anti-pRb2/p130, anti-Rb1/p105, anti-p107 and anti-PAI-2 antibodies. For all the cell lines analyzed, anti-PAI-2 antibody co-immunoprecitated pRb2/p130 and Rb1/p105 from both nuclear and cytoplasmic fractions. […]

[6] = listed as 5-AZA-2-deoxycytidine

Molecule: Nc1ncn([C@H]2C[C@H](O)[C@@H](CO)O2)c(=O)n1 [5-Aza-dC, 5-Aza-2-deoxycytidine]
amount of apoptotic cells (Weri-Rb1 cells [1]; 96 h, % of treated cells (control 6%)): 20%
G1 arrested cells (Weri-Rb1 cells [1]; after 24 h, % of treated cells (control 30%)): 40%
RB2/p130 mRNA level [2]: increase
RB2/p130 mRNA level [2, 6]: increased
expression of endogenous pRb2/p130 [3]: increased expression
number of cells (proliferation rate) (Weri-Rb1 cells [4]): markedly reduced
pRb2/p130 protein level, active hypophosphorylated form [5]: increase
pRb2/p130 protein level, active hypophosphorylated form [5, 6]: increased

binding result (p107): no binding
B1: plasminogen activator inhibitor type-2 (other, human, UniProt P05120 1-415, looked up)
chain: MEDLCVANTLFALNLFKHLAKASPTQNLFLSPWSISSTMAMVYMGSRGSTEDQMAKVLQFNEVGANAVTPMTPENFTSCGFMQQIQKGSYPDAILQAQAADKIHSSFRSLSSAINASTGNYLLESVNKLFGEKSASFREEYIRLCQKYYSSEPQAVDFLECAEEARKKINSWVKTQTKGKIPNLLPEGSVDGDTRMVLVNAVYFKGKWKTPFEKKLNGLYPFRVNSAQRTPVQMMYLREKLNIGYIEDLKAQILELPYAGDVSMFLLLPDEIADVSTGLELLESEITYDKLNKWTSKDKMAEDEVEVYIPQFKLEEHYELRSILRSMGMEDAFNKGRANFSGMSERNDLFLSEVFHQAMVDVNEEGTEAAAGTGGVMTGRTGHGGPQFVADHPFLFLIMHKITNCILFFGRFSSP
notes: Endogenous protein, immunoprecipitated with anti-PAI-2 antibody; also called PAI-2

From patent US20090270479A1, “Genetic and Epigenetic Alterations In the Diagnosis and Treatment of Cancer” (priority 2005, published 2009)
